In experiment [1] the test system is MCF-10A. As to the kind of experiment: Antitumor activity against human spontaneously immortalized wild type MCF-10A cells assessed as cell numbers measured after 48 hrs. It is filed as functional, cell-based. The note with it: Homo sapiens, MCF-10A, 48 h; read-out: EC50.
Experiment [2] is described as follows: Ratio of EC50 for antitumor activity against human spontaneously immortalized wild type MCF10A cells assessed as cell numbers measured after 48 hrs to antitumor activity against human spontaneously immortalized CDH-/- MCF10A cells assessed as cell numbers measured after 48 hrs. It is filed as functional, MCF-10A.
Experiment [3] deals with MCF-10A. As to the kind of experiment: Antitumor activity against human spontaneously immortalized CDH-/- MCF10A cells assessed as cell numbers at 3.13 uM measured after 48 hrs. The experiment is classed as functional.
In experiment [4] the test system is MCF-10A. As to the kind of experiment: Antitumor activity against human spontaneously immortalized CDH-/- MCF10A cells assessed as cell numbers measured after 48 hrs. It is filed as functional, cell-based. The note with it: Homo sapiens, MCF-10A, 48 h; read-out: EC50.
Experiment [5] relates to MCF-10A. Briefly: Induction apoptosis in human spontaneously immortalized wild type MCF10A cells assessed as early apoptotic cells at 6.25 uM measured after 48 hrs by flow cytometry-based annexin-V-FITC/propidium iodide (PI) apoptosis assay (reference value: 1.2%). It is filed as functional. Background: In flow cytometry, cells or beads pass a laser one at a time.
The nature of experiment [6]: Anticancer activity against mouse mammary organoids assessed as reduction in growth by measuring TdTom CdhI-/- at 12.5 uM incubated for 48 hrs. The experiment is classed as functional, Mammary gland. Further details: scale not given: the % may be the effect or the level left.
Experiment [7] concerns MCF-10A. As to the kind of experiment: Induction apoptosis in human CDH-/- MCF10A cells assessed as early apoptotic cells at 6.25 uM measured after 48 hrs by flow cytometry-based annexin-V-FITC/propidium iodide (PI) apoptosis assay (reference value: 2.9%). It is filed as functional.
Experiment [8] can be described thus: Anticancer activity against mouse gastric organoids assessed as reduction in growth by measuring TdTom CdhI-/- at 1.56 uM incubated for 48 hrs. The arrangement: scale not given: the % may be the effect or the level left. It is filed as functional, Gastric gland.
Experiment [9] deals with MCF-10A. As to the kind of experiment: Induction apoptosis in human spontaneously immortalized wild type MCF10A cells assessed as necrotic cells at 3.25 uM measured after 48 hrs by flow cytometry-based annexin-V-FITC/propidium iodide (PI) apoptosis assay. It is filed as functional.
Experiment [10] relates to NCI-N87. Briefly: Antitumor activity against human CDH-/- NCI-N87cells assessed as cell numbers measured after 48 hrs. Conditions: NCI-N87, 48 h. It is filed as functional, cell-based.
The target in experiment [11] is SUMO-conjugating enzyme UBC9 (Homo sapiens) (UniProt P63279). Briefly: Binding affinity to SUMO-conjugating UBC9 in human spontaneously immortalized CDH-/- MCF10A cell lysates assessed as change in melting temperature at 3.125 uM for 3 hrs by thermal proteome profiling assay. Conditions: MCF-10A.
In experiment [12] the test system is MCF-10A. As to the kind of experiment: Binding affinity to TCOF1 in human spontaneously immortalized CDH-/- MCF10A cell lysates assessed as change in melting temperature at 3.125 uM for 3 hrs by thermal proteome profiling assay.
For experiment [13], the system named is MCF-10A. Briefly: Induction apoptosis in human spontaneously immortalized wild type MCF10A cells assessed as necrotic cells at 6.25 uM measured after 48 hrs by flow cytometry-based annexin-V-FITC/propidium iodide (PI) apoptosis assay. It is filed as functional.
Another experiment is filed under the species Homo sapiens. As to the kind of experiment: Inhibition of SUMOylation of GST-tagged RanGAP1 (unknown origin) protein using SUMO1 and UBC9 up to 3.13 uM by Western blotting analysis. A general note: Immunoblotting shows a protein as a band on a membrane.
In experiment [14] the test system is MCF-10A. As to the kind of experiment: Induction apoptosis in human spontaneously immortalized wild type MCF10A cells assessed as viable cells at 6.25 uM measured after 48 hrs by flow cytometry-based annexin-V-FITC/propidium iodide apoptosis assay (reference value: 94.4%). It is filed as functional. The note with it: read-out: Activity.
Experiment [15] concerns MCF-10A. Briefly: Induction apoptosis in human CDH-/- MCF10A cells assessed as late apoptotic cells at 6.25 uM measured after 48 hrs by flow cytometry-based annexin-V-FITC/propidium iodide (PI) apoptosis assay (reference value: 3.2%). The experiment is classed as functional.
Experiment [16] has as its system MCF-10A. As to the kind of experiment: Induction apoptosis in human CDH-/- MCF10A cells assessed as viable cells at 6.25 uM measured after 48 hrs by flow cytometry-based annexin-V-FITC/propidium iodide (PI) apoptosis assay (reference value: 93.6%). The experiment is classed as functional. Conditions: read-out: Activity.
Experiment [17] relates to MCF-10A. Briefly: Induction of apoptosis in human spontaneously immortalized wild type MCF10A cells assessed as apoptotic cells at 12.5 uM measured after 48 hrs by flow cytometry-based annexin-V-FITC/propidium iodide (PI) apoptosis assay. The experiment is classed as functional.
Experiment [18] is described as follows: Ratio of EC50 for antitumor activity against human NCI-N87 cells assessed as cell numbers measured after 48 hrs to antitumor activity against human CDH-/- NCI-N87 cells assessed as cell numbers measured after 48 hrs. It is filed as functional.
In experiment [19] the target is Actin-related protein 2/3 complex subunit 5 (Homo sapiens) (UniProt O15511). Briefly: Binding affinity to ARPC5 in human spontaneously immortalized CDH-/- MCF10A cell lysates assessed as change in melting temperature at 3.125 uM for 3 hrs by thermal proteome profiling assay. The note with it: MCF-10A.
For experiment [20], the system named is MCF-10A. As to the kind of experiment: Induction apoptosis in human spontaneously immortalized wild type MCF10A cells assessed as late apoptotic cells at 6.25 uM measured after 48 hrs by flow cytometry-based annexin-V-FITC/propidium iodide (PI) apoptosis assay (reference value: 4.2%). It is filed as functional.
Experiment [21] has as its system MCF-10A. As to the kind of experiment: Induction of apoptosis in human spontaneously immortalized CDH-/- MCF10A cells assessed as apoptotic cells at 12.5 uM measured after 48 hrs by flow cytometry-based annexin-V-FITC/propidium iodide (PI) apoptosis assay. It is filed as functional.
In experiment [22] the test system is NCI-N87. Briefly: Antitumor activity against human wild type NCI-N87 cells assessed as cell numbers measured after 48 hrs. Conditions: NCI-N87, 48 h. The experiment is classed as functional, cell-based.

Activity calls are given as the source filed them. The rule behind the calls is not given here.

SUMO-conjugating enzyme UBC9 (Homo sapiens), sequence (P63279 whole entry): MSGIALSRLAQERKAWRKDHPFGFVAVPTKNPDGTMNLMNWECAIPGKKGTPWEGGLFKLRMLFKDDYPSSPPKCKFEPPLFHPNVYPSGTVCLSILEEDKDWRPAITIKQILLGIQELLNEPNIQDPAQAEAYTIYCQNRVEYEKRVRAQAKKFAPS

As a reminder, the EC50 is the concentration giving half of the maximal effect. Broadly, the inhibition is the percentage by which the read-out fell short of the control. Turning to `COc1ccc2c(NCc3ccc(F)cc3)cc(C)nc2c1`, the EC50 came to 15.9 µM in the experiment on MCF-10A [1] and 10.2 µM with MCF-10A [4]. Further, in experiment [2], the “Ratio EC50” value came out at 1.6. In the experiment with MCF-10A [3], the inhibition at 3.13 µM is 10%.
In general, ΔTm refers to the shift of the melting midpoint relative to a reference. For the molecule `Cc1cc(NCc2ccc(F)cc2)c2cc(OCCCN3CCCC3)ccc2n1`, the Activity is given as 23.5% in the experiment on MCF-10A [5]; 21.3% in experiment [6]; 24.7% in the experiment on MCF-10A [7]; 40% in experiment [8]; 5% in the experiment with MCF-10A [9]; 32% in the experiment on MCF-10A [13]. Moreover, the Activity is given as 48% in the experiment with MCF-10A [15], above 90% in the experiment with MCF-10A [17], 11.2% with MCF-10A [20] and above 90% in the experiment with MCF-10A [21]. For the same molecule, the EC50 with NCI-N87 [10] worked out at 16.4 µM; in the experiment with MCF-10A [1], 3.2 µM; in the experiment with NCI-N87 [22], 8.5 µM; in the experiment on MCF-10A [4], 2 µM. The ΔTm in experiment [11] amounted to 5.71 °C; in the experiment on MCF-10A [12], 8.32 °C; in [19], 3.72 °C. Also, the inhibition result in the experiment listed under Homo sapiens was “Active”. For the same molecule, the values for the viability at 6.25 µM in the experiment on MCF-10A [14] and in the experiment on MCF-10A [16] were 64.9% and 26.7%, respectively. Further, the “Ratio EC50” value in experiment [18] is 1.9; in experiment [2], 1.6. In the experiment with MCF-10A [3], the inhibition at 3.13 µM was 70%.
Consider `COc1ccc2nc(-c3ccc(C)o3)cc(NCc3ccc(F)cc3)c2c1`, for which the EC50 in the experiment on MCF-10A [1] came out at 11.1 µM; with MCF-10A [4] it was 8.3 µM. For the same molecule, the “Ratio EC50” value in experiment [2] is listed as 1.4.
For `COc1ccc2nc(C)cc(NCc3ccccc3CO)c2c1`, in that order: 25.9 µM, 22.9 µM and 1.1.
For `COc1ccc2nc(C)cc(SCc3ccccc3)c2c1`, in that order: 37.1 µM, 30.6 µM and 1.2.
Regarding `COc1ccc2nc(C)cc(NCc3ccccc3OC)c2c1`, the EC50 with MCF-10A [1] turned out to be 29.5 µM; in the experiment with MCF-10A [4], 25.2 µM. In addition, the “Ratio EC50” value in experiment [2] came to 1.2.
For `COc1ccc2nc(C)cc(NCc3cccc4ccccc34)c2c1`, in that order: 50 µM, 4.1 µM and 12.
As to `COc1ccc2nc(CO)cc(NCc3ccc(F)cc3)c2c1`, the EC50 in the experiment on MCF-10A [1] is 31 µM; in the experiment on MCF-10A [4] it was 20.8 µM. For the same molecule, the “Ratio EC50” value in experiment [2] worked out at 1.5. Moreover, in the experiment with MCF-10A [3], the inhibition at 3.13 µM worked out at 10%.
With `COc1ccc2nc(-c3ccc(C)o3)cc(NC3CCN(C)CC3)c2c1`, the values for the EC50 in the experiment with MCF-10A [1] and in the experiment with MCF-10A [4] were 0.8 µM and 1.1 µM, respectively. In [2], the “Ratio EC50” value is given as 0.8.
Take `Cc1cc(NCc2ccc(F)cc2)c2ccccc2n1`: the EC50 was determined as 20.1 µM with MCF-10A [1] and 15.4 µM in the experiment with MCF-10A [4]. Besides, in experiment [2], the “Ratio EC50” value was determined as 1.3.
`Cc1cc(NCc2ccc(F)cc2)c2cc(OCCCCCCO)ccc2n1`: the EC50 in the experiment on MCF-10A [1] is 11.3 µM; in the experiment on MCF-10A [4] it was 8.1 µM. In addition, the “Ratio EC50” value in experiment [2] turned out to be 1.4.
For `COc1ccc2nc(CO)cc(NC3CCN(C)CC3)c2c1`, the EC50 with MCF-10A [1] was 30.1 µM; in the experiment with MCF-10A [4], 32.3 µM. Besides, the “Ratio EC50” value in experiment [2] was 0.9.
In the same order, the values of `COc1cccc(CNc2cc(C)nc3ccc(OCCCN4CCCC4)cc23)c1` are 3.6 µM, 3.6 µM and 1.2.
For `COc1ccc2nccc(NCc3ccc(F)cc3)c2c1`, the results for the EC50 in the experiment with MCF-10A [1] and with MCF-10A [4] were 16.4 µM and 13.3 µM, respectively. Further, in [2], the “Ratio EC50” value amounted to 1.2.
`COc1cc2c(NCc3ccc(F)cc3)cc(-c3ccc(C)o3)nc2cc1OCCCN1CCCC1`: the EC50 was found to be 2.1 µM in the experiment on MCF-10A [1] and 1.8 µM with MCF-10A [4]. Besides, in experiment [2], the “Ratio EC50” value is 1.1.
In the case of `COc1ccc2nc(C)cc(NCc3ccc(C(C)(C)C)cc3)c2c1`, the results for the EC50 in the experiment on MCF-10A [1] and in the experiment with MCF-10A [4] were 7 µM and 6.9 µM, respectively. In addition, in experiment [2], the “Ratio EC50” value was 1.
Turning to `COc1cc2c(NC3CCN(C)CC3)cc(C)nc2cc1OCCCN1CCCC1`, the EC50 in the experiment on MCF-10A [1] stood at 39.2 µM; in the experiment on MCF-10A [4] it was 41.1 µM. Besides, in [2], the “Ratio EC50” value worked out at 1.
Take `COc1ccc2nc(C)cc(NCc3cccc(F)c3)c2c1`: the figures for the EC50 in the experiment with MCF-10A [1] and in the experiment on MCF-10A [4] were 14.7 µM and 11.3 µM, respectively. In experiment [2], the “Ratio EC50” value is on record as 1.3.
Take `COc1cc2c(NCc3ccc(F)cc3)cc(C)nc2cc1OCCCN1CCCC1`: the EC50 with MCF-10A [1] amounted to 2.1 µM; in the experiment on MCF-10A [4], 1.9 µM. Further, the “Ratio EC50” value in experiment [2] is given as 1.1.
On to `COc1ccc2nc(C)cc(NCc3ccccc3)c2c1`, for which the EC50 with MCF-10A [1] was 28.6 µM; in the experiment with MCF-10A [4], 25.9 µM. Moreover, in experiment [2], the “Ratio EC50” value was found to be 1.1.
In the case of `COc1ccc2nc(C)cc(SCc3ccc(F)cc3)c2c1`, the EC50 with MCF-10A [1] was 50.5 µM; with MCF-10A [4], 41 µM. For the same molecule, the “Ratio EC50” value in experiment [2] is on record as 1.2.
In the case of `COc1ccc2nc(C)cc(NCc3cccc(-c4ccccc4)c3)c2c1`, the EC50 stood at 3.1 µM in the experiment on MCF-10A [1] and 2.8 µM with MCF-10A [4]. In addition, in experiment [2], the “Ratio EC50” value turned out to be 1.1.

Source of the values: ChEMBL document CHEMBL5055686, “Discovery of AL-GDa62 as a Potential Synthetic Lethal Lead for the Treatment of Gastric Cancer” (J Med Chem, 2021).
